# Values quoted from earlier work in patent US20070191304A1, “Methods for performing percutaneous coronary intervention” (priority 2005, published 2007).
# Details: bivalirudin plus GP IIb/IIIa inhibitors
substance,measurement,value
bivalirudin,"Primary endpoint of death, myocardial infarction, urgent revascularization and major bleeding, compared to UFH plus planned GP IIb/IIIa inhibitors",noninferior
